Values after ≈ are worked out from the molar mass of the structure shown. Read-outs that look alike come from different tables or passages of the source. Marks after values point to notes of the source that are not given here.
Tests used:
[1] = in vivo; cited from earlier work
[2] = Experimental, cited from earlier work
[3] = Experimental; cited from earlier work
[4] = Experimental (Buprenorphine at 25° C.); cited from earlier work
physchem = settings: BB
Experimental: Briefly, samples were prepared by mixing active agent and solvent and were tested at various time points after mixing and after storage at various temperatures. The samples were tested for the solubility of the active agent (mg/mL), calculated as the free base equivalent. Each data point is the average of two replicates unless otherwise specified.

[5] = cited from earlier work

Compound | Oral Half-life [1] | logP [3] | further results
O=C1CCc2ccc(OCCCCN3CCN(c4cccc(Cl)c4Cl)CC3)cc2N1 [Aripiprazole] | 75 h | – | Water Solubility [2]: 0.00001%
CN1CC2c3ccccc3Oc3ccc(Cl)cc3C2C1 (centres unmarked) [Asenapine] | ~24 h | – | –
Nc1ncn([C@@H]2O[C@H](CO)[C@@H](O)[C@H]2O)c(=O)n1 [Azacitidine] | ~4 h | – | –
O=c1ccc2ccc(OCCCCN3CCN(c4cccc5sccc45)CC3)cc2[nH]1 [Brexpiprazoie] | 91 h | – | –
C[C@@](Cc1ccc(O)c(O)c1)(NN)C(=O)O [Carbidopa] | ~1.78 h | −1.9 | pKa [4]: 2.3; Water Solubility [2]: 3.8 mg/mL
Nc1ncn([C@H]2C[C@H](O)[C@@H](CO)O2)c(=O)n1 [Decitabine] | 0.51 ± 0.31 h | – | –
C[C@@H]1CCO[C@H]2Cn3cc(C(=O)NCc4ccc(F)cc4F)c(=O)c(O)c3C(=O)N12 [Dolutegravir] | 14 h | 2.2 | Water Solubility ([2]; in words): Slightly soluble
COc1cc2c(cc1Cc1cccc(Cl)c1F)c(=O)c(C(=O)O)cn2[C@H](CO)C(C)C [Elvitegravir] | 8.7 h | – | –
CCNC(=O)[C@@H]1CCCN1C(=O)[C@H](CCCNC(=N)N)NC(=O)[C@H](CC(C)C)NC(=O)[C@@H](CC(C)C)NC(=O)[C@H](Cc1ccc(O)cc1)NC(=O)[C@H](CO)NC(=O)[C@H](Cc1c[nH]c2ccccc12)NC(=O)[C@H](Cc1c[nH]cn1)NC(=O)[C@@H]1CCC(=O)N1 [Leuprolide] | ~3 h | – | –
N[C@@H](Cc1ccc(O)c(O)c1)C(=O)O [Levodopa] | 0.833 h | 0.05 | Water Solubility [2]: 5 mM
O=C1[C@@H]2[C@H]3CC[C@H](C3)[C@@H]2C(=O)N1C[C@@H]1CCCC[C@H]1CN1CCN(c2nsc3ccccc23)CC1 [Lurasidone] | 18 to 37 h | – | –
O=C1CC[C@@]2(O)[C@H]3Cc4ccc(O)c5c4[C@@]2(CCN3CC2CC2)[C@H]1O5 [Naltrexone] | – | 1.92 | –
Cc1cc2c(s1)Nc1ccccc1N=C2N1CCN(C)CC1 [Olanzapine] | 21 −54 hrs | – | –
Cc1nc2n(c(=O)c1CCN1CCC(c3noc4cc(F)ccc34)CC1)CCCC2O (centres unmarked) [Paliperidone] | ~23 h | 1.8 | –
Cc1nnc(C(=O)NC(C)(C)c2nc(C(=O)NCc3ccc(F)cc3)c(O)c(=O)n2C)o1 [Raltegravir] | 9 h | – | –
Cc1cc(/C=C/C#N)cc(C)c1Nc1ccnc(Nc2ccc(C#N)cc2)n1 [Rilpivirine] | 34 to 55 h | 4.86 | Water Solubility [2]: <0.1 mg/mL
Cc1cn([C@H]2C=C[C@@H](CO)O2)c(=O)[nH]c1=O [Stavudine] | 0.8 to 1.5 h | −0.72 | Water Solubility ([2]; at 21° C.): 5-10 g/100 mL at
CC(C)OC(=O)[C@H](C)N[P@](=O)(CO[C@H](C)Cn1cnc2c(N)ncnc21)Oc1ccccc1 [TAF Free base, tenofovir alafenamide] | – | – | solubility at 4 days (physchem): 5000 µg/mL (≈ 10.5 mM)
CC(C)OC(=O)[C@H](C)N[P@](=O)(CO[C@H](C)Cn1cnc2c(N)ncnc21)Oc1ccccc1.CC(C)OC(=O)[C@H](C)N[P@](=O)(CO[C@H](C)Cn1cnc2c(N)ncnc21)Oc1ccccc1.O=C(O)/C=C/C(=O)O [TAF Hemifumarate] | – | – | Solubility (mg/mL, Calculated as Free Base Equivalent) (ACN, 37° C./5 days): 11 mg/mL; Solubility (mg/mL, Calculated as Free Base Equivalent) (BB, 37° C., asterisk: taken at 4 days as opposed to 5 days): 3.9* mg/mL; Solubility (mg/mL, Calculated as Free Base Equivalent) (DCM, 37° C./5 days): 97 mg/mL; Solubility (mg/mL, Calculated as Free Base Equivalent) (DMSO, 37° C./5 days): 132 mg/mL; Solubility (mg/mL, Calculated as Free Base Equivalent) (NMP, 37° C./5 days): 160 mg/mL; Solubility (mg/mL, Calculated as Free Base Equivalent) (PC, 37° C./5 days): 22 mg/mL
Nc1ccn([C@H]2CC[C@@H](CO)O2)c(=O)n1 [Zalcitabine] | 2 h | – | –
sucrose acetate isobutyrate [SAIB] | – | – | viscosity ([5]; at 37° C.): about 320,000 cP; viscosity ([5]; at 80° C.): about 600 cP; viscosity ([5]; at about 25° C.): about 2 million
